The results in this text go back to patent US3966951A, “Esters of quinoxaline-1,4-dioxides” (Pfizer Inc., priority 1975, dated 1976).

The structures appear in SMILES notation. Where only a bound is given, the exact number is not on record here.

Test in all cases: in vitro MIC, Inocula Replicating Device, anaerobic Gas Pac, BHI agar
What all share (type): cell-based
Common to all, as to settings: unit assumed

The test system of assay [1] is Strep. zoo 02-H001.
For assay [2], the system named is Sal. dublin 58U001.
The test system of assay [3] is Past. mult 59A006.
Assay [4] concerns Strep. pyogen 02C203.
Assay [5] relates to E. Coli 51A-218.
Assay [6] concerns Staph. aureus 01A005.
For assay [7], the system named is Past. mult 59A004.
In assay [8] the test system is E. Coli 51A-266.
Assay [9] deals with Sal. typhim 58D011.
The test system of assay [10] is Strep. equi 021001.
Assay [11] deals with Aer. hydro 72B001.
Assay [12] deals with Sal. cholsu 58B242.
Assay [13] has as its system Staph. aureus 01A106.

Turning to `O=C(CCc1ccc(O)cc1)OCc1c(CO)[n+]([O-])c2ccccc2[n+]1[O-]` [Compound 5], the Primary in vitro Activity (MIC) in assay [1] was 100 µg/mL; in assay [2], 100 µg/mL; in assay [3], 50 µg/mL; in [4], 50 µg/mL; in [5], 100 µg/mL; in assay [6], 25 µg/mL. Moreover, the Primary in vitro Activity (MIC) in [7] is 50 µg/mL; in assay [8], 100 µg/mL; in assay [9], 100 µg/mL; in assay [10], 12.5 µg/mL; in [11] it was 12.5 µg/mL; in assay [12] it was 100 µg/mL. Moreover, the Primary in vitro Activity (MIC) in [13] was 25 µg/mL.
Take `CC(=O)c1c(COC(=O)c2cccc(O)c2)[n+]([O-])c2ccccc2[n+]1[O-]` [Compound 2]: the Primary in vitro Activity (MIC) in assay [1] was under 100 µg/mL; in [2], under 100 µg/mL; in assay [3] it was 25 µg/mL; in [4], 25 µg/mL; in assay [5], 50 µg/mL; in [6], 12.5 µg/mL. Moreover, the Primary in vitro Activity (MIC) in assay [7] is 12.5 µg/mL; in assay [8] it was under 100 µg/mL; in assay [9], under 100 µg/mL; in assay [10], under 1.56 µg/mL; in assay [11] it was 3.2 µg/mL; in assay [12] it was under 100 µg/mL. Also, the Primary in vitro Activity (MIC) in [13] is 6.25 µg/mL.
`O=C(OCc1c(CO)[n+]([O-])c2ccccc2[n+]1[O-])c1ccc(O)cc1` [Compound 4]: the Primary in vitro Activity (MIC) is 100 µg/mL in assay [1]; 25 µg/mL in assay [2]; 12.5 µg/mL in assay [3]; under 1.56 µg/mL in [4]; 50 µg/mL in [5]; 3.2 µg/mL in [6]. Further, the Primary in vitro Activity (MIC) in assay [7] is 100 µg/mL; in [8], 25 µg/mL; in [9] it was 25 µg/mL; in assay [10] it was under 1.56 µg/mL; in assay [11] it was 12.5 µg/mL; in assay [12] it was 50 µg/mL. The compound also showed a Primary in vitro Activity (MIC) in assay [13] of 3.2 µg/mL.
With `O=C(Cc1ccc(O)cc1)OCc1c(CO)[n+]([O-])c2ccccc2[n+]1[O-]` [Compound 6], the Primary in vitro Activity (MIC) is 12.5 µg/mL in assay [1]; 25 µg/mL in assay [2]; 25 µg/mL in [3]; under 1.56 µg/mL in assay [4]; 12.5 µg/mL in [5]; 1.56 µg/mL in assay [6]. Moreover, the Primary in vitro Activity (MIC) is 12.5 µg/mL in assay [7]; 12.5 µg/mL in assay [8]; 25 µg/mL in assay [9]; under 1.56 µg/mL in [10]; 1.56 µg/mL in [11]; 25 µg/mL in [12]. This compound also displayed a Primary in vitro Activity (MIC) in assay [13] of 1.56 µg/mL.
For `CC(=O)c1c(COC(=O)Cc2ccc(O)cc2)[n+]([O-])c2ccccc2[n+]1[O-]` [Compound 3], the Primary in vitro Activity (MIC) in assay [1] is under 1.56 µg/mL; in assay [2] it was 50 µg/mL; in assay [3], 6.25 µg/mL; in assay [4], 6.25 µg/mL; in [5] it was 12.5 µg/mL; in assay [6], 0.78 µg/mL. For the same compound, the Primary in vitro Activity (MIC) in assay [7] was 12.5 µg/mL; in assay [8], 12.5 µg/mL; in assay [9] it was 50 µg/mL; in assay [10], under 1.56 µg/mL; in assay [11] it was under 1.56 µg/mL; in assay [12] it was 50 µg/mL. Also, in [13], the Primary in vitro Activity (MIC) stood at 1.56 µg/mL.
`O=C(CCc1ccc(O)cc1)OCc1c[n+]([O-])c2ccccc2[n+]1[O-]` [Compound 8]: the Primary in vitro Activity (MIC) in assay [1] is 6.25 µg/mL; in [2] it was 100 µg/mL; in assay [3], 50 µg/mL; in assay [4], 6.25 µg/mL; in assay [5] it was 50 µg/mL; in assay [6], 12.5 µg/mL. Also, the Primary in vitro Activity (MIC) is under 100 µg/mL in [7]; 100 µg/mL in [8]; 200 µg/mL in assay [9]; 6.25 µg/mL in assay [10]; 6.25 µg/mL in assay [11]; 50 µg/mL in [12]. This compound showed a Primary in vitro Activity (MIC) in [13] of 12.5 µg/mL.
For the compound `O=C(C=Cc1ccc(O)cc1)OCc1c(CO)[n+]([O-])c2ccccc2[n+]1[O-]` [Compound 7], the Primary in vitro Activity (MIC) in assay [1] was 50 µg/mL; in assay [2], 25 µg/mL; in assay [3], 25 µg/mL; in assay [4] it was 12.5 µg/mL; in assay [5] it was 12.5 µg/mL; in [6] it was 6.25 µg/mL. The Primary in vitro Activity (MIC) in assay [7] turned out to be 12.5 µg/mL; in [8], 12.5 µg/mL; in assay [9] it was 12.5 µg/mL; in assay [10], 0.78 µg/mL; in assay [11] it was 1.56 µg/mL; in assay [12], 25 µg/mL. In assay [13], this compound showed a Primary in vitro Activity (MIC) of 6.25 µg/mL.
With `O=C(Cc1ccc(O)cc1)OCc1c[n+]([O-])c2ccccc2[n+]1[O-]` [Compound 9], the Primary in vitro Activity (MIC) in assay [1] came to 6.25 µg/mL; in [2] it was 50 µg/mL; in [3], 12.5 µg/mL; in [4], 3.12 µg/mL; in [5] it was 25 µg/mL; in assay [6] it was 6.25 µg/mL. Besides, the Primary in vitro Activity (MIC) stood at 50 µg/mL in [7]; 50 µg/mL in assay [8]; 25 µg/mL in assay [9]; 6.25 µg/mL in assay [10]; 3.12 µg/mL in assay [11]; 12.5 µg/mL in assay [12]. In assay [13], the Primary in vitro Activity (MIC) stood at 12.5 µg/mL.
Turning to `CC(=O)c1c(COC(=O)c2ccc(O)cc2)[n+]([O-])c2ccccc2[n+]1[O-]` [Compound 1], the Primary in vitro Activity (MIC) was under 1.56 µg/mL in assay [1]; 50 µg/mL in [2]; 25 µg/mL in [3]; 3.12 µg/mL in [4]; 50 µg/mL in assay [5]; 1.56 µg/mL in assay [6]. For the same compound, the Primary in vitro Activity (MIC) in assay [7] was 12.5 µg/mL; in [8] it was 50 µg/mL; in assay [9], 50 µg/mL; in [10], under 1.56 µg/mL; in assay [11], 6.25 µg/mL; in assay [12] it was 50 µg/mL. Moreover, the Primary in vitro Activity (MIC) in [13] worked out at 1.56 µg/mL.
